Test results as given in US10130693B2, “Peptides, combination of peptides and scaffolds for use in immunotherapeutic treatment of various cancers” (Immatics Biotechnologies GmbH, priority 2015, dated 2018).

System: HLA-A*24
Test: MHC binding assay, UV-ligand exchange with beta2m ELISA (exchange yield), HLA-A*24
Parameters: species or system human
Details: binding to HLA-A*24, UV-ligand exchange
Source text: Candidate peptides for T cell based therapies according to the present invention were further tested for their MHC binding capacity (affinity). The individual peptide-MHC complexes were produced by UV-ligand exchange, where a UV-sensitive peptide is cleaved upon UV-irradiation, and exchanged with the peptide of interest as analyzed. Only peptide candidates that can effectively bind and stabilize the peptide-receptive MHC molecules prevent dissociation of the MHC complexes. To determine the yield of the exchange reaction, an ELISA was performed based on the detection of the light chain (β2m) of stabilized MHC complexes. The assay was performed as generally described in Rodenko et al. (Rodenko et al., 2006).
96 well MAXISorp plates (NUNC) were coated over night with 2 ug/ml streptavidin in PBS at room temperature, washed 4× and blocked for 1 h at 37° C. in 2% BSA containing blocking buffer. […] Peptide-MHC monomers of the UV-exchange reaction were diluted 100 fold in blocking buffer. Samples were incubated for 1 h at 37° C., washed four times, incubated with 2 ug/ml HRP conjugated anti-β2m for 1h at 37° C., washed again and detected with TMB solution that is stopped with […]. Absorption was measured at 450 nm. Candidate peptides that show a high exchange yield (preferably higher than 50%, most preferred higher than 75%) are generally preferred for a generation and production of antibodies or fragments thereof, and/or T cell receptors or fragments thereof, as they show sufficient avidity to the MHC molecules and prevent dissociation of the MHC complexes.

| Substance | Peptide exchange (MHC class I binding score, peptide exchange yield) |
| --- | --- |
| 148 (SYGTVSQIF; listed as Homo sapiens) [compound 148] | ++++ (>=75% = ++++) |
| 118 (KYLNSVQYI; listed as Homo sapiens) [compound 118] | +++ (50%-75% = +++) |
| 302 (LYLPVHYGF; listed as Homo sapiens) [compound 302] | +++ (50%-75% = +++) |
| 375 (KYTDYILKI; listed as Homo sapiens) [compound 375] | +++ (50%-75% = +++) |
| 377 (QYTPHSHQF; listed as Homo sapiens) [compound 377] | +++ (50%-75% = +++) |
| 274 (KQLDIANYELF; listed as Homo sapiens) [compound 274] | ++++ (>=75% = ++++) |
| 248 (AFPTFSVQL; listed as Homo sapiens) [compound 248] | ++++ (>=75% = ++++) |
| 198 (DYVGFTLKI; listed as Homo sapiens) [compound 198] | ++ (20%-49% = ++) |
| 227 (IYRFITERF; listed as Homo sapiens) [compound 227] | +++ (50%-75% = +++) |
| 121 (RYGLPAAWSTF; listed as Homo sapiens) [compound 121] | +++ (50%-75% = +++) |
| 235 (VYKDSIYYI; listed as Homo sapiens) [compound 235] | +++ (50%-75% = +++) |
| 240 (YYFFVQEKI; listed as Homo sapiens) [compound 240] | +++ (50%-75% = +++) |
| 318 (TYSNSAFQYF; listed as Homo sapiens) [compound 318] | +++ (50%-75% = +++) |
| 149 (SYGTVSQI; listed as Homo sapiens) [compound 149] | ++++ (>=75% = ++++) |
| 141 (SYNGHLTIWF; listed as Homo sapiens) [compound 141] | +++ (50%-75% = +++) |
| 116 (AYVIAVHLF; listed as Homo sapiens) [compound 116] | ++++ (>=75% = ++++) |
| 123 (VYTPVLEHL; listed as Homo sapiens) [compound 123] | ++ (20%-49% = ++) |
| 211 (VFKSEGAYF; listed as Homo sapiens) [compound 211] | ++++ (>=75% = ++++) |
| 373 (GYISNGELF; listed as Homo sapiens) [compound 373] | +++ (50%-75% = +++) |
| 228 (IYQYVADNF; listed as Homo sapiens) [compound 228] | +++ (50%-75% = +++) |
| 100 (VYIESRIGTSTSF; listed as Homo sapiens) [compound 100] | +++ (50%-75% = +++) |

| Substance | Peptide exchange (MHC class I binding score, peptide exchange yield) |
| --- | --- |
| 299 (KYQYVLNEF; listed as Homo sapiens) [compound 299] | +++ (50%-75% = +++) |
| 226 (MYLKLVQLF; listed as Homo sapiens) [compound 226] | ++ (20%-49% = ++) |
| 127 (QYFTGNPLF; listed as Homo sapiens) [compound 127] | +++ (50%-75% = +++) |
| 301 (KFDDVTMLF; listed as Homo sapiens) [compound 301] | ++++ (>=75% = ++++) |
| 192 (RYSTFSEIF; listed as Homo sapiens) [compound 192] | +++ (50%-75% = +++) |
| 187 (AYAANVHYL; listed as Homo sapiens) [compound 187] | ++++ (>=75% = ++++) |
| 381 (KYPASSSVF; listed as Homo sapiens) [compound 381] | +++ (50%-75% = +++) |
| 254 (KYLESSATF; listed as Homo sapiens) [compound 254] | +++ (50%-75% = +++) |
| 219 (SYLKAVFNL; listed as Homo sapiens) [compound 219] | +++ (50%-75% = +++) |
| 223 (TFITQSPLL; listed as Homo sapiens) [compound 223] | ++++ (>=75% = ++++) |
| 165 (EYFTPLLSGQF; listed as Homo sapiens) [compound 165] | +++ (50%-75% = +++) |
| 287 (IYNPNLLTASKF; listed as Homo sapiens) [compound 287] | +++ (50%-75% = +++) |
| 388 (IYGEKTYAF; listed as Homo sapiens) [compound 388] | +++ (50%-75% = +++) |
| 113 (IYSFHTLSF; listed as Homo sapiens) [compound 113] | +++ (50%-75% = +++) |
| 97 (TYTFLKETF; listed as Homo sapiens) [compound 97] | ++++ (>=75% = ++++) |
| 369 (VYTHEVVTL; listed as Homo sapiens) [compound 369] | +++ (50%-75% = +++) |
| 251 (VYTKALSSL; listed as Homo sapiens) [compound 251] | +++ (50%-75% = +++) |
| 138 (VYNAVSTSF; listed as Homo sapiens) [compound 138] | ++ (20%-49% = ++) |
| 372 (VYVIEPHSMEF; listed as Homo sapiens) [compound 372] | +++ (50%-75% = +++) |
| 285 (VYVGDALLHAI; listed as Homo sapiens) [compound 285] | +++ (50%-75% = +++) |
| 133 (KYLEDMKTYF; listed as Homo sapiens) [compound 133] | +++ (50%-75% = +++) |

| Substance | Peptide exchange (MHC class I binding score, peptide exchange yield) |
| --- | --- |
| 199 (SYLNHLNNL; listed as Homo sapiens) [compound 199] | +++ (50%-75% = +++) |
| 147 (LYLAFPLAF; listed as Homo sapiens) [compound 147] | +++ (50%-75% = +++) |
| 206 (NYLDVATFL; listed as Homo sapiens) [compound 206] | ++++ (>=75% = ++++) |
| 244 (VHFEDTGKTLLF; listed as Homo sapiens) [compound 244] | +++ (50%-75% = +++) |
| 159 (IYEETRGVL; listed as Homo sapiens) [compound 159] | +++ (50%-75% = +++) |
| 210 (IYAGVGEFSF; listed as Homo sapiens) [compound 210] | ++++ (>=75% = ++++) |
| 252 (AFGQETNVPLNNF; listed as Homo sapiens) [compound 252] | ++++ (>=75% = ++++) |
| 200 (VFIHHLPQF; listed as Homo sapiens) [compound 200] | +++ (50%-75% = +++) |
| 220 (SYSEIKDFL; listed as Homo sapiens) [compound 220] | ++++ (>=75% = ++++) |
| 280 (TYNPNLQDKL; listed as Homo sapiens) [compound 280] | ++++ (>=75% = ++++) |
| 279 (VWLPASVLF; listed as Homo sapiens) [compound 279] | +++ (50%-75% = +++) |
| 317 (VFDTSIAQLF; listed as Homo sapiens) [compound 317] | +++ (50%-75% = +++) |
| 152 (KFFDDLGDELLF; listed as Homo sapiens) [compound 152] | ++ (20%-49% = ++) |
| 256 (VFGKSAYLF; listed as Homo sapiens) [compound 256] | +++ (50%-75% = +++) |
| 214 (KYLMELTLI; listed as Homo sapiens) [compound 214] | +++ (50%-75% = +++) |
| 117 (IYLSDLTYI; listed as Homo sapiens) [compound 117] | +++ (50%-75% = +++) |
| 283 (EYQEIFQQL; listed as Homo sapiens) [compound 283] | +++ (50%-75% = +++) |
| 194 (VYQSLSNSL; listed as Homo sapiens) [compound 194] | +++ (50%-75% = +++) |
| 212 (SYAPPSEDLF; listed as Homo sapiens) [compound 212] | ++ (20%-49% = ++) |
| 129 (KYIDYLMTW; listed as Homo sapiens) [compound 129] | ++++ (>=75% = ++++) |
